{"source": "paper PMC5719408", "about": "“Multivalent cross-linking of actin filaments and microtubules through the microtubule-associated protein Tau” (Nature Communications, 2017)", "key": {"F-actin [1]": {"tested_on": "F-actin", "assay": "Transfer NOE (2D NOESY) of Tau peptides with F-actin", "type": "binding, human", "settings": "27 μM F-actin, 800 μM peptide, NMR buffer pH 6.8 with 0.2 mM ATP and 0.2 mM CaCl2, 278 K", "from_the_text": "Instead, short hydrophobic Tau segments, which are separated from each other by flexible residues, bind dynamically to actin’s hydrophobic pocket (Fig. 2). […] NMR Nuclear overhauser effect (NOE) measurements that are sensitive for three-dimensional structure were subsequently performed. […] This approach is called transfer NOE and has been widely used to determine the structure of small ligands in complex with high molecular weight binding partners.\nTwo-dimensional NOESY experiments with five different mixing times ranging from 50 up to 250 ms were recorded for Tau(254–290) in the presence of F-actin. […] The NOE peaks, which were observed only in the presence of F-actin, provide experimental restraints for the structure of Tau(254–290) in complex with F-actin.\n(§1) The sample was then dialyzed against General Actin Buffer (GAB; 5 mM TrisHCl pH 8.0, 0.2 mM CaCl2, 0.2 mM ATP, 0.5 mM DTT) or NMR buffer (50 mM NaH2PO4/Na2HPO4 pH 6.8, 10 mM NaCl, 1 mM DTT, 10% (v/v) D2O) to be used for electron microscopy or NMR experiments, respectively. In case of actin, lyophilized actin was reconstituted to 10 mg ml^−1 by adding 100 μl of distilled water to be in the following buffer: GAB with 5% (w/v) sucrose and 1% (w/v) dextran. Subsequently, the sample was spun at 18,400 × g for 15 min, the supernatant was kept, and actin was polymerized by incubating 0.4 mg ml^−1 G-actin in GAB and supplemented with polymerization buffer (1/10th the volume; 100 mM Tris HCl pH 7.5, 20 mM MgCl2, 500 mM KCl, 10 mM ATP) for 1 h at room temperature. Afterwards, the sample was centrifuged at 100,000 × g during 1 h at 4 °C. Filaments were collected at the bottom of the ultracentrifuge tube. The pellet was then resuspended in GAB or NMR Buffer as required.\nNMR spectra were acquired on Bruker Avance800 and 900 MHz NMR spectrometers at 278 K to reduce solvent exchange. 2D ^1H-^15N HSQC spectra consisted of 64 scans, spectral windows of 12 ppm in the proton and 25 ppm in the nitrogen dimension. 2D NOESY experiments were acquired using 88 scans, 12 ppm spectral width and a time domain of 512 and 2048 points in the first and second dimension, respectively. To generate buildup curves, mixing times of 50, 80, 100, 150, and 250 ms were used.\nFor NOESY experiments, 27 μM of F-actin were mixed with 800 μM of Tau peptide in NMR buffer supplemented with 0.2 mM ATP and 0.2 mM CaCl2. A reference experiment was performed in similar conditions only with 800 μM peptide. For resonance assignment, a 2D TOCSY experiment with a mixing time of 75 ms was performed. All data were processed using NMRPipe[76] and analyzed using Sparky[77]."}, "F-actin [2]": {"tested_on": "F-actin", "assay": "Protein co-sedimentation / actin bundling (differential centrifugation, SDS gel)", "type": "biochemical, human", "settings": "for bundling of F-actin: co-sedimentation, F-actin with Tau (1:1) or Tau peptides (1:10, Tau(254–268) 1:30), room temperature 30 min", "description": "The ability of Tau to bundle F-actin was studied using electron microscopy (EM). […] Next, Tau/F-actin co-sedimentation was performed. The same sample, which was used for EM, was exposed to two sequential steps of centrifugation, in which single-actin filaments and actin bundles were collected separately. Subsequently, aliquots from supernatant (SN), filament (PF), and bundle (PB) fractions were loaded in a 4–20% gradient gel (Fig. 1c).\nas §1\nMixtures of F-actin with Tau (1:1) or Tau peptides (1:10 molar ratio) were incubated at room temperature for 30 min. In case of the shorter peptide Tau(254–268), a 1:30 ratio was used. Centrifugation was performed in two steps. First, a spin rate of 5000 × g was used during 15 min to collect bundles of F-actin (PB) at the bottom of the tube. Secondly, the remaining sample was centrifuged at 100,000 × g during 1 h collecting actin filaments (PF). The final supernatant (SN) was also kept for later usage. Pellets were resuspended in 80 μl of GAB. A volume of 25 μl of sample were taken for EM while the remaining 55 μl were loaded in a 4–20% gradient SDS gel, which was colored with […] and denatured with SDS and heat."}, "F-actin [3]": {"tested_on": "F-actin", "assay": "Electron microscopy of actin bundles", "type": "biochemical, human", "settings": "uranyl acetate stain, room temperature", "description": "The ability of Tau to bundle F-actin was studied using electron microscopy (EM). The diameter of single actin filaments was approximately 7 nm, in agreement with previous studies, [30]. […] Actin bundles ranged between 20 and 150 nm in diameter. Next, Tau/F-actin co-sedimentation was performed. The same sample, which was used for EM, was exposed to two sequential steps of centrifugation, in which single-actin filaments and actin bundles were collected separately. Subsequently, aliquots from supernatant (SN), filament (PF), and bundle (PB) fractions were loaded in a 4–20% gradient gel (Fig. 1c). […] In addition, ~8% of Tau molecules were bound to single filaments, while ~29% of Tau was found together with actin bundles.\nThe sample was then dialyzed against General Actin Buffer (GAB; 5 mM TrisHCl pH 8.0, 0.2 mM CaCl2, 0.2 mM ATP, 0.5 mM DTT) or NMR buffer (50 mM NaH2PO4/Na2HPO4 pH 6.8, 10 mM NaCl, 1 mM DTT, 10% (v/v) D2O) to be used for electron microscopy or NMR experiments, respectively. […]\nSamples were bound to a glow discharged carbon foil covered copper grid. […] The samples were evaluated at room temperature using a CM 120 transmission electron microscope (FEI, Eindhoven, and The Netherlands) and a TemCam F416 CMOS camera (TVIPS, Gauting, Germany)."}, "NBD-labeled F-actin": {"molecular_target": "T1, NBD-labeled F-actin (Oryctolagus cuniculus, UniProt P68135)", "T1 construct": "NBD-conjugated actin from α-skeletal muscle was bought from Hypermol; purchased Hypermol (Bielefeld, Germany); host or cells: α-skeletal muscle (tissue-derived (so in the source))", "assay": "F-actin binding assay (NBD fluorescence change)", "settings": "25 °C", "protocol": "In order to gain insight into the affinity of the Tau/F-actin-interaction, the change in fluorescence of 7-chloro-4-nitrobenz-2-oxa-1,3-diazole (NBD)-labeled F-actin upon addition of Tau was followed[31]. 0.2 μM of NBD-labeled and phalloidin-stabilized F-actin were mixed with increasing amounts of Tau (Fig. 1d and Supplementary Fig. 1).\nNBD-conjugated actin from α-skeletal muscle was bought from Hypermol (Bielefeld, Germany). In this experiment, 7-chloro-4-nitrobenz-2-oxa-1,3-diazole (NBD)-labeled G-actin was polymerized starting from 0.4 mg ml^−1 of the conjugated actin supplemented with 10-fold excess of phalloidin (catalog no. P2141, Sigma-Aldrich) to provide stable filaments. […] The change of fluorescence intensity from NBD was followed in a Cary Eclipse fluorescence spectrophotometer (Agilent Technologies, Inc.). […] As reported by Hertzog, M. et al.[31] the normalized decrease in fluorescence (equation 1) was analyzed and fitted by using equation 2.1 E=F-F0/Fmax-F0 2 E=1/2C+1/2Z-1/2C+Z^2-4Z with Z=[partner]/[F-actin]andC=1+Kd/[F-actin]\nAffinity of Tau and Tau fragments for binding to NBD-labeled F-actin. (a) Change of NBD fluorescence upon addition of increasing concentrations of Tau and Tau fragments. […]\n(b) Bar diagram showing Kd values, which were determined based on the quenching effect of Tau/Tau fragments on the fluorescent properties of NBD-labeled F-actin. […]"}, "F-actin [4]": {"tested_on": "F-actin", "assay": "Saturation transfer difference (STD) NMR with F-actin", "type": "binding, human", "settings": "compared with wild-type Tau(254–290)", "description": "We therefore prepared a mutant version of Tau(254–290), in which L266 was replaced by a glutamate, i.e., Tau(254–290)-L266E. We then used saturation transfer difference (STD)[49] experiments to probe the influence of the mutation on binding of Tau(254–290) to F-actin.\nas §1"}, "F-actin [5]": {"molecular_target": "F-actin", "settings": "phosphate buffer; read-out: Kd of Tau/F-actin, previously reported; cited from earlier work", "description": "0.2 μM of NBD-labeled and phalloidin-stabilized F-actin were mixed with increasing amounts of Tau (Fig. 1d and Supplementary Fig. 1). […] Other stoichiometries, however, cannot be excluded. The derived dissociation constant is lower than a previously reported value of 241 ± 43 nM[7] ..."}, "F-actin [6]": {"tested_on": "F-actin", "assay": "Titration of F-actin into 15N-Tau, two-state Bloch-McConnell fit (peer review file)", "type": "binding, human", "settings": "grid-search pushed to the edge of the parameter space, fits were not good", "from_the_text": "(4 pictures or pasted objects on this page, not shown here)"}, "F-actin [7]": {"molecular_target": "F-actin", "settings": "read-out: Kd of cofilin for F-actin; cited from earlier work", "description": "(§2) In order to gain insight into how Tau regulates the polymerization and structure of F-actin, we sought to obtain information about the Tau-binding site on F-actin. […] One of these binding partners is cofilin, a 21 kDa eukaryotic protein, which binds to F-actin with a K d < 0.05 µM[33] and results in disassembly of F-actin[34], [35]."}, "F-actin [8]": {"tested_on": "F-actin", "assay": "Protein co-sedimentation / actin bundling (differential centrifugation, SDS gel)", "type": "biochemical, human", "settings": "molar ratio 1.5:1:10"}, "Tau": {"tested_on": "Tau", "assay": "Binding of cofilin to Tau (HSQC)", "design": "species or system human", "settings": "15N-Tau/F-actin 1:1.5, 10-fold excess of cofilin", "description": "as §2, with “[35]. […] To test if the binding site of Tau on F-actin overlaps with that of cofilin, we added a 10-fold excess of cofilin to a solution containing ^15N-labeled Tau and 1.5-fold excess (with respect to Tau) of F-actin. For the resulting mixture, a ^1H-^15N HSQC spectrum was recorded. […] Subsequently, we repeated the actin/Tau co-sedimentation assay in the presence of cofilin.” for “[35].”\nHuman Tau (2N4R) was expressed in the E. coli strain BL21 (DE3) (MERCK Millipore) using the vector pNG2 as described. The bacterial pellet was resuspended in lysis buffer (50 mM Mes, 500 mM NaCl, 1 mM MgCl2, 1 mM EGTA, 5 mM DTT, pH 6.8) and supplemented with a protease inhibitor mixture. Cells were disrupted using a French pressure cell and subsequently boiled for 20 min. […]\nFor HSQC-based competition experiments, 20 μM of ^15N-labeled Tau were mixed with 30 μM F-actin in NMR buffer supplemented with 0.2 mM ATP and 0.2 mM CaCl2 (sample 2). […] Competition was monitored by reading out the variation in signal broadening in 2D ^1H-^15N HSQC spectra of Tau."}}, "note": "Where two headings read alike, the source gives them in different places."}
{"substance": "Tau(254–268): contains the residues which form the helix in the N-terminal half of Tau(254–290) (Ac-KNVKSKIGSTENLKH-NH2)", "values": [{"measurement": "transfer NOE cross-peaks in presence of F-actin", "setting": "F-actin [1]", "value": "folds into an α-helix (residues 259–265) in complex with F-actin"}, {"measurement": "bundling of F-actin", "setting": "F-actin [2]", "value": "not able to bundle F-actin"}]}
{"substance": "Tau(254–290): synthetic Tau peptide, acetyl and amide protection groups at the N- and C terminus", "values": [{"measurement": "transfer NOE cross-peaks in presence of F-actin", "setting": "F-actin [1]", "value": "additional NOE cross-peaks were observed"}, {"measurement": "bundling of F-actin (electron microscopy)", "setting": "F-actin [3]", "value": "bundles filaments"}]}
{"substance": "Tau(254–290)-L266E: mutant version of Tau(254–290), in which L266 was replaced by a glutamate (Ac-KNVKSKIGSTENEKHQPGGGKVQIINKKLDLSNVQSK-NH2)", "values": [{"measurement": "affinity for F-actin relative to parent (in words)", "setting": "NBD-labeled F-actin; NBD-labeled F-actin, GAB, values only in Supplementary Fig. 1b bar diagram", "value": "decrease in affinity"}, {"measurement": "transfer NOE cross-peaks in presence of F-actin", "setting": "F-actin [1]", "value": "no additional cross-peaks were observed"}, {"measurement": "bundling of F-actin", "setting": "F-actin [2]", "value": "less efficient in promoting F-actin bundling"}, {"measurement": "STD signal relative to wild-type peptide", "setting": "F-actin [4]", "value": "decreased STD signal"}]}
{"substance": "Tau(292–319): Tau peptide comprising the residues of repeat R2 and R3", "values": [{"measurement": "transfer NOE cross-peaks in presence of F-actin", "setting": "F-actin [1]", "value": "revealed NOEs specific for the Tau(292–319)/F-actin complex"}, {"measurement": "bundling of F-actin", "setting": "F-actin [2]", "value": "promotes bundling of actin filaments"}]}
{"substance": "K18: artificial fragment of Tau which comprises all four repeats (residues Gln244–Glu372 plus initial Met243)", "values": [{"measurement": "bundling of F-actin", "setting": "F-actin [2]", "value": "capable of bundling F-actin"}]}
{"substance": "Tau: full-length human Tau (2N4R), expressed in E. coli", "values": [{"measurement": "Kd", "setting": "F-actin [5]", "value": "241 ± 43", "unit": "nM"}, {"measurement": "Kd", "setting": "NBD-labeled F-actin; NBD-labeled, phalloidin-stabilized F-actin (α-skeletal muscle actin), 0.2 μM (Results) / 0.25 µM (Methods) F-actin, GAB (5 mM TrisHCl pH 8.0, 0.2 mM CaCl2, 0.2 mM ATP, 0.5 mM DTT), single-binding site fit, s.d. from three experiments, read-out: dissociation constant (Kd) of Tau or Tau fragment for F-actin", "value": "60 ± 10", "unit": "nM"}, {"measurement": "kon, local two-state NMR fit (residues I260, L266, G287/V287)", "setting": "F-actin [6]", "value": "~10^7 M-1s-1"}, {"measurement": "Tau found together with actin bundles (PB)", "setting": "F-actin [2]; F-actin:Tau 1:1, room temperature 30 min, pellet of 5000 × g, 15 min", "value": "~ 29%"}, {"measurement": "Tau bound to single filaments (PF)", "setting": "F-actin [2]; F-actin:Tau 1:1, room temperature 30 min, pellet of 100,000 × g, 1 h", "value": "~ 8%"}, {"measurement": "Tau remaining in supernatant (SN)", "setting": "F-actin [2]; F-actin:Tau 1:1, room temperature 30 min, quantification of gel band intensity, supernatant after 100,000 × g", "value": "~ 63%"}, {"measurement": "bundling of F-actin", "setting": "F-actin [2]", "value": "bundles actin filaments"}, {"measurement": "bundling of F-actin (electron microscopy)", "setting": "F-actin [3]", "value": "caused bundling of F-actin"}]}
{"substance": "Tau(254–284): Tau peptide, residues 254–284", "values": [{"measurement": "bundling of F-actin", "setting": "F-actin [2]", "value": "promoted actin bundles"}]}
{"substance": "cofilin: human cofilin (catalog no. CF01, Cytoskeleton, Inc.), 21 kDa eukaryotic actin-binding protein", "values": [{"measurement": "Kd", "setting": "F-actin [7]", "value": "< 50", "unit": "nM"}, {"measurement": "disassembly of actin filaments by cofilin", "setting": "F-actin [8]; F-actin + Tau + cofilin", "value": "actin filaments were not disassembled by cofilin"}, {"measurement": "effect of cofilin on Tau co-sedimentation with F-actin", "setting": "F-actin [8]", "value": "decreased the amount of Tau that co-sedimented with F-actin"}, {"measurement": "binding of cofilin to Tau", "setting": "Tau", "value": "does not bind to Tau"}]}
